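Test compounds were applied to cells in 96-well plates for 48 hours at 5 doses. Definition used: TGI = concentration required for complete inhibition of growth.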
Experiments:
Experiment in all cases: NCI anticancer screen, dose series, 48 h
[1] = system: SK-MEL-28 melanoma
[2] = system: MCF7 breast
[3] = system: SF-295 CNS
[4] = system: SNB-19 CNS
[5] = system: NCI-H226 lung
[6] = system: HCT-15 colon
[7] = system: KM12 colon
[8] = system: NCI/ADR-RES ovarian
[9] = system: M14 melanoma
[10] = system: SW-620 colon
[11] = system: LOX IMVI melanoma
[12] = system: NCI-H23 lung
[13] = system: COLO 205 colon
[14] = system: HT29 colon
[15] = system: OVCAR-8 ovarian
[16] = system: OVCAR-3 ovarian
[17] = system: MDA-MB-435
[18] = system: A498 renal
[19] = system: CAKI-1 renal
[20] = system: TK-10 renal
[21] = system: UACC-257 melanoma
[22] = system: NCI-H460 lung
[23] = system: HCT-116 colon
[24] = system: HL-60(TB) leukemia
[25] = system: MDA-N
[26] = system: K-562 leukemia
[27] = system: MALME-3M melanoma
[28] = system: NCI-H522 lung
[29] = system: DU-145 prostate
[30] = system: A549 NSCLC
[31] = system: SF-268 CNS
[32] = system: T-47D breast
[33] = system: HS 578T breast
[34] = system: U251 CNS
[35] = system: UO-31 renal
[36] = system: SK-MEL-5 melanoma
[37] = system: EKVX NSCLC
[38] = system: BT-549 breast
[39] = system: SN12C renal
[40] = system: MDA-MB-231 breast
[41] = system: HOP-92 NSCLC
[42] = system: 786-0 renal
[43] = system: CCRF-CEM leukemia
[44] = system: OVCAR-4 ovarian
[45] = system: OVCAR-5 ovarian
[46] = system: MOLT-4 leukemia
[47] = system: UACC-62 melanoma
[48] = system: IGROV1 ovarian
[49] = system: HOP-62 NSCLC
[50] = system: SK-OV-3 ovarian
[51] = system: HCC-2998 colon
[52] = system: SF-539 CNS
[53] = system: PC-3 prostate
[54] = system: ACHN renal
[55] = system: SK-MEL-2 melanoma
[56] = system: SNB-75 CNS
[57] = system: RPMI-8226 leukemia
[58] = system: SR leukemia

## Cc1cc(-n2c(/C=C/c3ccc(Cl)cc3)nc3cc(Cl)ccc3c2=O)on1
[1]
  TGI: > 50 µM
[2]
  TGI: > 50 µM
[3]
  TGI: > 50 µM
[4]
  TGI: 26.6 µM
[5]
  TGI: 33.2 µM
[6]
  TGI: > 50 µM
[7]
  TGI: > 50 µM
[8]
  TGI: 39 µM
[9]
  TGI: 32.9 µM
[10]
  TGI: > 50 µM
[11]
  TGI: > 50 µM
[12]
  TGI: > 50 µM
[13]
  TGI: > 50 µM
[14]
  TGI: > 50 µM
[15]
  TGI: 47.7 µM
[16]
  TGI: 30.9 µM
[17]
  TGI: > 50 µM
[18]
  TGI: 11.5 µM
[19]
  TGI: > 50 µM
[20]
  TGI: > 50 µM
[21]
  TGI: > 50 µM
[22]
  TGI: 22 µM
[23]
  TGI: 29.6 µM
[24]
  TGI: > 50 µM
[25]
  TGI: > 50 µM
[26]
  TGI: > 50 µM
[27]
  TGI: > 50 µM
[28]
  TGI: > 50 µM
[29]
  TGI: > 50 µM
[30]
  TGI: > 50 µM
[31]
  TGI: > 50 µM
[32]
  TGI: > 50 µM
[33]
  TGI: 31.4 µM
[34]
  TGI: 16.4 µM
[35]
  TGI: 19.7 µM
[36]
  TGI: > 50 µM
[37]
  TGI: > 50 µM
[38]
  TGI: > 50 µM
[39]
  TGI: > 50 µM
[40]
  TGI: 42.4 µM
[41]
  TGI: > 50 µM
[42]
  TGI: 5.19 µM
[43]
  TGI: > 50 µM
[44]
  TGI: 4.05 µM
[45]
  TGI: > 50 µM
[46]
  TGI: > 50 µM
[47]
  TGI: > 50 µM
[48]
  TGI: > 50 µM
[49]
  TGI: 18.3 µM
[50]
  TGI: 42.3 µM
[51]
  TGI: > 50 µM
[52]
  TGI: > 50 µM
[53]
  TGI: > 50 µM
[54]
  TGI: 24.1 µM

## c1ccc(NNC2=NCCN2)cc1
[1]
  TGI: > 100 µM
[55]
  TGI: > 100 µM
[2]
  TGI: > 100 µM
[3]
  TGI: > 100 µM
[4]
  TGI: > 100 µM
[5]
  TGI: > 100 µM
[6]
  TGI: > 100 µM
[7]
  TGI: > 100 µM
[8]
  TGI: > 100 µM
[9]
  TGI: > 100 µM
[10]
  TGI: > 100 µM
[11]
  TGI: > 100 µM
[12]
  TGI: > 100 µM
[13]
  TGI: > 100 µM
[14]
  TGI: > 100 µM
[15]
  TGI: > 100 µM
[16]
  TGI: > 100 µM
[17]
  TGI: > 100 µM
[18]
  TGI: > 100 µM
[19]
  TGI: > 100 µM
[20]
  TGI: > 100 µM
[21]
  TGI: > 100 µM
[22]
  TGI: > 100 µM
[23]
  TGI: > 100 µM
[24]
  TGI: > 100 µM
[25]
  TGI: > 100 µM
[26]
  TGI: > 100 µM
[28]
  TGI: > 100 µM
[29]
  TGI: > 100 µM
[30]
  TGI: > 100 µM
[31]
  TGI: > 100 µM
[32]
  TGI: > 100 µM
[33]
  TGI: > 100 µM
[34]
  TGI: > 100 µM
[35]
  TGI: > 100 µM
[36]
  TGI: > 100 µM
[37]
  TGI: > 100 µM
[38]
  TGI: > 100 µM
[56]
  TGI: > 100 µM
[57]
  TGI: > 100 µM
[39]
  TGI: > 100 µM
[40]
  TGI: > 100 µM
[42]
  TGI: > 100 µM
[43]
  TGI: > 100 µM
[58]
  TGI: > 100 µM
[44]
  TGI: > 100 µM
[45]
  TGI: > 100 µM
[46]
  TGI: > 100 µM
[47]
  TGI: > 100 µM
[48]
  TGI: > 100 µM
[49]
  TGI: > 100 µM
[50]
  TGI: > 100 µM
[52]
  TGI: > 100 µM
[53]
  TGI: > 100 µM
[54]
  TGI: > 100 µM

## CCOC(=O)C1(Cc2ccc3c(c2)CCC3)Cc2cc3c(cc2C1=O)CCC3 (stereo unspecified)
[1]
  TGI: > 100 µM
[55]
  TGI: > 100 µM
[2]
  TGI: > 100 µM
[3]
  TGI: > 100 µM
[4]
  TGI: > 100 µM
[5]
  TGI: > 100 µM
[6]
  TGI: > 100 µM
[7]
  TGI: > 100 µM
[8]
  TGI: > 100 µM
[9]
  TGI: > 100 µM
[10]
  TGI: > 100 µM
[11]
  TGI: > 100 µM
[12]
  TGI: > 100 µM
[13]
  TGI: > 100 µM
[14]
  TGI: > 100 µM
[15]
  TGI: > 100 µM
[16]
  TGI: > 100 µM
[17]
  TGI: > 100 µM
[18]
  TGI: > 78.7 µM
[19]
  TGI: > 100 µM
[20]
  TGI: > 100 µM
[21]
  TGI: > 100 µM
[22]
  TGI: > 100 µM
[23]
  TGI: > 100 µM
[24]
  TGI: 7.07 µM
[25]
  TGI: > 100 µM
[26]
  TGI: > 100 µM
[27]
  TGI: > 100 µM
[28]
  TGI: > 100 µM
[29]
  TGI: > 100 µM
[30]
  TGI: > 100 µM
[31]
  TGI: > 100 µM
[32]
  TGI: > 100 µM
[33]
  TGI: > 100 µM
[34]
  TGI: > 100 µM
[35]
  TGI: > 100 µM
[36]
  TGI: > 100 µM
[37]
  TGI: > 100 µM
[38]
  TGI: > 100 µM
[56]
  TGI: > 100 µM
[57]
  TGI: > 100 µM
[39]
  TGI: > 100 µM
[40]
  TGI: > 100 µM
[42]
  TGI: > 100 µM
[43]
  TGI: > 100 µM
[58]
  TGI: > 100 µM
[44]
  TGI: > 100 µM
[45]
  TGI: > 100 µM
[46]
  TGI: > 100 µM
[47]
  TGI: > 100 µM
[48]
  TGI: > 100 µM
[49]
  TGI: > 100 µM
[50]
  TGI: > 100 µM
[51]
  TGI: > 100 µM
[52]
  TGI: > 100 µM
[53]
  TGI: > 100 µM
[54]
  TGI: > 100 µM

Reference: PubChem BioAssay (NCI)
